According to patent US20100190694A1, “Methods for identifying patients who will respond well to cancer treatment” (priority 2009, published 2010):

Tested on: advanced solid tumors
Test: Phase I study: efficacy by RECIST, treatment duration, TTP
Format: in vivo, human
Conditions: Pat 101-6, esophageal adenoca, before study
Source text: Phase I dose-escalation, multi-center study with the objectives to assess: • maximum tolerated dose and dose limiting toxicities (DLT) of Bel in combination with FU • impact of Bel on expression of TS, dihydropyrimidine dehydrogenase (DPD), and p21, in tumor and non-tumor surrogate tissue (peripheral blood mononuclear cells; PBMC) • preliminary anti-tumor activity of Bel in combination with FU • impact of Bel on ECG parameters • pharmacokinetics (PK) of Bel when given in combination with FU
Treatment cycles of 21 days included Bel alone in cycle 1, and Bel in combination with FU in all subsequent cycles (FIG. 4). Treatment was to continue until significant treatment-related toxicity or progressive disease. […]
DLTs, i.e. grade ¾ non-hematologic toxicities and grade 4 neutropenia or thrombocytopenia, were determined in cycles 1 and 2. Safety was assessed by NCI CTC (v. 3) and efficacy by RECIST criteria. Expression of TS, DPD, and p21 mRNA was measured by RTQ-PCR in PBMC (20 patients at baseline, and pre-dosing, 6 and 24-hours post-dosing, on days 1 and 4 in cycle 1) and in tumor biopsies (8 patients at baseline and once on days 4 or 5 in cycle 1). Results were expressed as gene expression relative to actin (i.e. TS/Actin Relative Gene Expression, DPD/Actin Relative Gene Expression, and p21/Actin Relative Gene Expression).

With CC(=O)O[C@H]1C(=O)[C@@]2(C)[C@H]([C@H](OC(=O)c3ccccc3)[C@]3(O)C[C@H](OC(=O)[C@H](O)[C@@H](NC(=O)c4ccccc4)c4ccccc4)C(C)=C1C3(C)C)[C@]1(OC(C)=O)CO[C@@H]1C[C@@H]2O [paclitaxel] the “TTP on most recent prior line of therapy” value was “(12.0 weeks)”.
